The test system of one assay is Del19/T790M/C797S EGFR. The assay can be described thus: EGFR degradation HTRF assay in H1975-clone #28 (DTC) cells. The format is cell-based. The following applies: H1975 # 28 DTC (Del19/T790M/C797S), 16h treatment; for DC50: HTRF; for Dmax (%): maximum percentage of degradation. In outline:
(§1)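 Engineered H1975 lines (exogenous mutant EGFR, endogenous copies knocked out, single clones sequence-verified); 16 h compound, 37 °C/5% CO2, 0.2% DMSO; top 10 uM, 5-fold, 8 pts; lysis 1 h RT, HTRF antibodies overnight RT; 4-parameter logistic fit → DC50.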
In general terms: TR-FRET usually uses a lanthanide donor and a delayed reading to cut background.

The next assay has as its target T1, L858R/T790M/C797S EGFR (Homo sapiens, UniProt P00533, C797S/L858R/T790M).
T1 construct: expressed in transfected cells; host or cells: H1975 clone #25 (lentiviral over-expression, endogenous EGFR knocked out by sgRNA)
The assay can be described thus: EGFR degradation HTRF assay in H1975-clone #25 (LTC) cells. The following applies: 16h treatment; for DC50: H1975 # 25-LTC (L858R/T790M/C797S), HTRF; for Dmax: NCI-H1975, H1975 # 25-LTC (L858R/T790M/C797S), maximum percentage of degradation. The format is cell-based. The procedure, abridged: as §1

T1 sequence (P00533 25-1210 T790M/C797S/L858R): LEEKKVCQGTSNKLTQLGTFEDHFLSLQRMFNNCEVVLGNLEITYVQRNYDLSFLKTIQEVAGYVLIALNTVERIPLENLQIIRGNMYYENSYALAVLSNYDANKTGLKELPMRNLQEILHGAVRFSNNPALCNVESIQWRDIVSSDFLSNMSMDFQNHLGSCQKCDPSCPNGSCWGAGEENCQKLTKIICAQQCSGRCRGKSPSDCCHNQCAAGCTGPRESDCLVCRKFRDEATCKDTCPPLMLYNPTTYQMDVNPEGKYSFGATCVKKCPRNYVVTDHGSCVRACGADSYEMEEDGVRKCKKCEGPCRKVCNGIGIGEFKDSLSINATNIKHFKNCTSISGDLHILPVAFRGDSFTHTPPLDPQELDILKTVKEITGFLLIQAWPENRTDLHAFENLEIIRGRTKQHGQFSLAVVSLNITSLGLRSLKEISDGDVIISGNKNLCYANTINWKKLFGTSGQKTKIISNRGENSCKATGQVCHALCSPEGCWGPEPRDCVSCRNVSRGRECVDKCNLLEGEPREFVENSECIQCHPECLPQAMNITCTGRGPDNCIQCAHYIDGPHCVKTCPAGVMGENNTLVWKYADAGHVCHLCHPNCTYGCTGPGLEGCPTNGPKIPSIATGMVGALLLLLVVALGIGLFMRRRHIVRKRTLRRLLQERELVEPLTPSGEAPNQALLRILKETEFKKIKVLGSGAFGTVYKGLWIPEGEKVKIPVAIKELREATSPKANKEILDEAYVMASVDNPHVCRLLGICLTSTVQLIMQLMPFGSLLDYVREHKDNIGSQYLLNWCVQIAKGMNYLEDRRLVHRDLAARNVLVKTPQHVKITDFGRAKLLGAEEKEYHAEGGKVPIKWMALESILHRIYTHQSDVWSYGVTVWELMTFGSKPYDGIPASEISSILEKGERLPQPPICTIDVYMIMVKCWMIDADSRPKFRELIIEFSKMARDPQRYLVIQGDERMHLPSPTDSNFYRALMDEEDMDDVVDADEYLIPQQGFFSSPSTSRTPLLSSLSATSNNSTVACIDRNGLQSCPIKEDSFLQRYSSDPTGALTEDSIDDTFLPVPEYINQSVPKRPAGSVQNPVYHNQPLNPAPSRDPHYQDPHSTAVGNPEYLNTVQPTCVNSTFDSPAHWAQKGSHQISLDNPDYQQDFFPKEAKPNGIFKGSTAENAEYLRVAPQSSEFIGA

Take `Cc1cc2cc(n1)-c1cnn(C)c1OCCC[C@@H](C)CN1/C(=N/C2=O)Nc2ccc(CCN3CCN(c4cc(F)c([C@H]5CCC(=O)NC5=O)c(F)c4)CC3)cc21` [Example 446, (R)-3-(2,6-difluoro-4-(4-(2-((R,E)-1^1,2^6,7-trimethyl-3-oxo-5^2,5^3-dihydro-1^1H,5^1H-11-oxa-4-aza-5(2,1)-benzo[d]imidazola-2(2,4)-pyridina-1(4,5)-pyrazolacycloundecaphane-5^6-yl)ethyl)piperazin-1-yl)phenyl)piperidine-2,6-dione]: in the assay on Del19/T790M/C797S EGFR, half-maximal degradation (DC50) was put at 1.19 nM and the “Dmax (%)” value is reported as 76.42%. Besides, at L858R/T790M/C797S EGFR, half-maximal degradation (DC50) was put at 0.696 nM and the Dmax – broadly, the largest share of the target that was removed – amounted to 91.8%.
The matching figures for `Cc1cc2cc(n1)-c1cnn(C)c1OCCC[C@@H](C)CN1/C(=N/C2=O)Nc2ccc(C(=O)N[C@H](C)C3CCN(CCc4cc(F)c([C@H]5CCC(=O)NC5=O)c(F)c4)CC3)cc21` [Example 271, (R,E)-N—((R)-1-(1-(4-((R)-2,6-dioxopiperidin-3-yl)-3,5-difluorophenethyl)piperidin-4-yl)ethyl)-1^1,2^6,7-trimethyl-3-oxo-5^2,5^3-dihydro-1^1H,5^1H-11-oxa-4-aza-5(2,1)-benzo[d]imidazola-2(2,4)-pyridina-1(4,5)-pyrazolacycloundecaphane-5^6-carboxamide]: 1.15 nM, 70.36%, 0.557 nM and 81.2%.
Consider `Cc1cc2cc(n1)-c1cnn(C)c1OCCC[C@@H](C)CN1/C(=N/C2=O)Nc2ccc(CN3CC4(C3)CN(C(=O)C3CN(c5cc(F)c([C@H]6CCC(=O)NC6=O)c(F)c5)C3)C4)cc21` [Example 79, (R)-3-(2,6-difluoro-4-(3-(6-(((R,E)-1^1,2^6,7-trimethyl-3-oxo-5^2,5^3-dihydro-1^1H,5^1H-11-oxa-4-aza-5(2, 1)-benzo[d]imidazola-2(2,4)-pyridina-1(4,5)-pyrazolacycloundecaphane-5^6-yl)methyl)-2,6-diazaspiro[3.3]heptane-2-carbonyl)azetidin-1-yl)phenyl)piperidine-2,6-dione], for which, in the assay on Del19/T790M/C797S EGFR, the DC50 (in general, the concentration giving 50% degradation) is 0.7 nM and the “Dmax (%)” value was determined as 82.2%. In addition, on L858R/T790M/C797S EGFR, the DC50 worked out at 0.6 nM and the Dmax turned out to be 90.6%.
For `Cc1cc2cc(n1)-c1cnn(C)c1OCCC[C@@H](C)CN1/C(=N/C2=O)Nc2ccc(C(=O)N(C)C3CCN(CCc4cccc5c4n(C)c(=O)n5C4CCC(=O)NC4=O)CC3)cc21` (stereo partly drawn) [Example 314, (7R,E)-N-(1-(2-(1-(2,6-dioxopiperidin-3-yl)-3-methyl-2-oxo-2,3-dihydro-1H-benzo[d]imidazol-4-yl)ethyl)piperidin-4-yl)-N,1^1,2^6,7-tetramethyl-3-oxo-5^2,5′-dihydro-1^1H,5^1H-11-oxa-4-aza-5(2,1)-benzo[d]imidazola-2(2,4)-pyridina-1(4,5)-pyrazolacycloundecaphane-5^6-carboxamide] the same measures were 3.37 nM, 50.86%, 2.59 nM and 75.3%.
Regarding `Cc1cc2cc(n1)-c1cnn(C)c1OCCC[C@@H](C)CN1/C(=N/C2=O)Nc2ccc(N3CC(C(=O)N4CCN(c5cc(F)c([C@H]6CCC(=O)NC6=O)c(F)c5)CC4)C3)cc21` [Example 354, (R)-3-(2,6-difluoro-4-(4-(1-((R,E)-1^1,2^6,7-trimethyl-3-oxo-5^2,5^3-dihydro-1^1H,5^1H-11-oxa-4-aza-5(2,1)-benzo[d]imidazola-2(2,4)-pyridina-1(4,5)-pyrazolacycloundecaphane-5^6-yl)azetidine-3-carbonyl)piperazin-1-yl)phenyl)piperidine-2,6-dione], in the assay with Del19/T790M/C797S EGFR, half-maximal degradation (DC50) was put at 0.501 nM and the “Dmax (%)” value was found to be 72.74%. On L858R/T790M/C797S EGFR, this molecule showed a DC50 of 0.59 nM and a Dmax of 89.3%.
Regarding `Cc1cc2cc(n1)-c1cnn(C)c1OCCC[C@@H](C)CN1/C(=N/C2=O)Nc2ccc(CN3CCN(C(=O)[C@@H]4CCN(c5cc(F)c([C@H]6CCC(=O)NC6=O)c(F)c5)C4)C[C@H]3CO)cc21` [Example 196, (R)-3-(2,6-difluoro-4-((R)-3-((S)-3-(hydroxymethyl)-4-(((R,E)-1^1,2^6,7-trimethyl-3-oxo-5^2,5^3-dihydro-1^1H,5^1H-11-oxa-4-aza-5(2,1)-benzo[d]imidazola-2(2,4)-pyridina-1(4,5)-pyrazolacycloundecaphane-56-yl)methyl)piperazine-1-carbonyl)pyrrolidin-1-yl)phenyl)piperidine-2,6-dione], in the assay on Del19/T790M/C797S EGFR, it took 0.598 nM to reach half-maximal degradation (DC50) and the “Dmax (%)” value is reported as 78.44%. On L858R/T790M/C797S EGFR, this molecule returned a DC50 of 0.716 nM and a Dmax of 87.1%.
For `Cc1cc2cc(n1)-c1cnn(C)c1OCCC[C@@H](C)CN1/C(=N/C2=O)Nc2ccc(N3CCN(C4CCN(c5cc(F)c([C@H]6CCC(=O)NC6=O)c(F)c5)CC4)CC3)cc21` [Example 324, (R)-3-(2,6-difluoro-4-(4-(4-((R,E)-1^1,26,7-trimethyl-3-oxo-5^2,5^3-dihydro-1^1H,5^1H-11-oxa-4-aza-5(2, 1)-benzo[d]imidazola-2(2,4)-pyridina-1(4,5)-pyrazolacycloundecaphane-5^6-yl)piperazin-1-yl)piperidin-1-yl)phenyl)piperidine-2,6-dione] the same measures were 0.859 nM, 78.7%, 1.02 nM and 91.1%.
In the case of `Cc1cc2cc(n1)-c1cnn(C)c1OCCC[C@@H](C)CN1/C(=N/C2=O)Nc2ccc(CN3CC4(CCN(C(=O)[C@@H]5CCN(c6cc(F)c([C@H]7CCC(=O)NC7=O)c(F)c6)C5)CC4)C3)cc21` [Example 84, (R)-3-(2,6-difluoro-4-((R)-3-(2-(((R,E)-1^1,2^6,7-trimethyl-3-oxo-5^2,5^3-dihydro-1^1H,5^1H-11-oxa-4-aza-5(2,1)-benzo[d]imidazola-2(2,4)-pyridina-1(4,5)-pyrazolacycloundecaphane-5^6-yl)methyl)-2,7-diazaspiro[3.5]nonane-7-carbonyl)pyrrolidin-1-yl)phenyl)piperidine-2,6-dione], in the assay on Del19/T790M/C797S EGFR, the DC50 is 0.8 nM and the “Dmax (%)” value came out at 86.1%. Besides, on L858R/T790M/C797S EGFR, it took 2.9 nM to reach half-maximal degradation (DC50) and the Dmax was 92.7%.
The matching figures for `Cc1cc2cc(n1)-c1cnn(C)c1OCCC[C@@H](C)CN1/C(=N/C2=O)Nc2ccc(C(=O)NC3CN(CCc4cc(F)c([C@H]5CCC(=O)NC5=O)c(F)c4)C3)cc21` [Example 307, (R,E)-N-(1-(4-((R)-2,6-dioxopiperidin-3-yl)-3,5-difluorophenethyl)azetidin-3-yl)-1^1,2^6,7-trimethyl-3-oxo-5^2,5^3-dihydro-1^1H,5^1H-11-oxa-4-aza-5(2,1)-benzo[d]imidazola-2(2,4)-pyridina-1(4,5)-pyrazola cycloundecaphane-5^6-carboxamide]: 1.28 nM, 52.25%, 1.78 nM and 84.8%.
Turning to `Cc1cc2cc(n1)-c1cnn(C)c1OCCC[C@@H](C)CN1/C(=N/C2=O)Nc2ccc(C(=O)N3CC[C@@H](NCCc4cc(F)c([C@H]5CCC(=O)NC5=O)c(F)c4)C3)cc21` [Example 296, (R)-3-(2,6-difluoro-4-(2-(((R)-1-((R,E)-1^1,2^6,7-trimethyl-3-oxo-5^2,5^3-dihydro-1^1H,5^1H-11-oxa-4-aza-5(2,1)-benzo[d]imidazola-2(2,4)-pyridina-1(4,5)-pyrazolacycloundecaphane-5′-carbonyl)pyrrolidin-3-yl)amino)ethyl)phenyl)piperidine-2,6-dione], in the assay with Del19/T790M/C797S EGFR, half-maximal degradation (DC50) was put at 0.842 nM and the “Dmax (%)” value is reported as 51.36%. On L858R/T790M/C797S EGFR, this molecule came in with a DC50 of 0.707 nM and a Dmax of 84.8%.

The values are drawn from patent publication US20240342292A1, “Compounds for the Degradation of EGFR Kinase” (BeiGene Switzerland GmbH, priority 2021, published 2024).
